Measured values reported in PMC7034945 (RSC Advances, 2019).

Test system: HIV-1 NL4-3 virus
Assay: Anti-HIV-1 activity, multicycle assay with HIV-1 NL4-3 in TZM-bl cells
Assay type: cell-based
Settings: for anti-HIV-1 activity (in words) / SI (selectivity index, ratio of CC50/EC50): TZM-bl cells; for anti-HIV-1 activity (in words): at the test concentration; for EC50: Human immunodeficiency virus 1, NL43, TZM-bl

Molecule	anti-HIV-1 activity (in words)	EC50 [µM]	SI (selectivity index, ratio of CC50/EC50) (Table 1)	SI (selectivity index, ratio of CC50/EC50) (Table 2)
Methyl (S)-2-(4-(3-((1-((4-methoxyphenyl)(methyl)amino)-1-oxo-3-phenylpropan-2-yl)carbamoyl)phenyl)-1H-1,2,3-triazol-1-yl)acetate [III-15m]	lost anti-HIV-1 activity completely			
COc1ccc(N(C)C(=O)[C@H](Cc2cc(F)cc(F)c2)NC(=O)c2cn(Cc3cccc(C)c3)nn2)cc1 [I-8b, (S)-N-(3-(3,5-Difluorophenyl)-1-((4-methoxyphenyl)(methyl)amino)-1-oxopropan-2-yl)-1-(3-methylbenzyl)-1H-1,2,3-triazole-4-carboxamide]		9.43 ± 2.31	>2.04	
COc1ccc(N(C)C(=O)[C@H](Cc2ccccc2)NC(=O)c2cccc(-c3cn(Cc4ccc5ccccc5c4)nn3)c2)cc1 [III-15j, (S)-N-(1-((4-Methoxyphenyl)(methyl)amino)-1-oxo-3-phenylpropan-2-yl)-3-(1-(naphthalen-2-ylmethyl)-1H-1,2,3-triazol-4-yl)benzamide]		> 33.6		
COc1ccc(N(C)C(=O)[C@H](Cc2cc(F)cc(F)c2)NC(=O)c2cn(Cc3ccc([N+](=O)[O-])cc3)nn2)cc1 [I-8l, (S)-N-(3-(3,5-Difluorophenyl)-1-((4-methoxyphenyl)(methyl)amino)-1-oxopropan-2-yl)-1-(4-nitrobenzyl)-1H-1,2,3-triazole-4-carboxamide]		9.26 ± 2.54	>1.96	
COc1ccc(N(C)C(=O)[C@H](Cc2cc(F)cc(F)c2)NC(=O)c2cccc(-c3cn(CC(=O)Nc4ccccc4)nn3)c2)cc1 [II-10e, (S)-N-(3-(3,5-Difluorophenyl)-1-((4-methoxyphenyl)(methyl)amino)-1-oxopropan-2-yl)-3-(1-(2-oxo-2-(phenylamino)ethyl)-1H-1,2,3-triazol-4-yl)benzamide]	exhibited anti-HIV-1 activity at the test concentration	8.16 ± 2.56		>3.92
(S)-N-(1-((4-Methoxyphenyl)(methyl)amino)-1-oxo-3-phenylpropan-2-yl)-3-(1-(naphthalen-1-ylmethyl)-1H-1,2,3-triazol-4-yl)benzamide [III-15l]	lost anti-HIV-1 activity completely			
COc1ccc(N(C)C(=O)[C@H](Cc2cc(F)cc(F)c2)NC(=O)c2cn(CS(=O)(=O)c3ccccc3)nn2)cc1 [I-8t, (S)-N-(3-(3,5-Difluorophenyl)-1-((4-methoxyphenyl)(methyl)amino)-1-oxopropan-2-yl)-1-((phenylsulfonyl)methyl)-1H-1,2,3-triazole-4-carboxamide]		4.21 ± 0.9	>4.17	
COc1ccc(N(C)C(=O)[C@H](Cc2cc(F)cc(F)c2)NC(=O)c2cccc(-c3cn(CCc4ccsc4)nn3)c2)cc1 [II-10h, (S)-N-(3-(3,5-Difluorophenyl)-1-((4-methoxyphenyl)(methyl)amino)-1-oxopropan-2-yl)-3-(1-(2-(thiophen-3-yl)ethyl)-1H-1,2,3-triazol-4-yl)benzamide]	exhibited anti-HIV-1 activity at the test concentration	7.48 ± 2.83		>4.44
COc1ccc(N(C)C(=O)[C@H](Cc2ccccc2)NC(=O)c2cccc(-c3cn(Cc4ccc([N+](=O)[O-])cc4)nn3)c2)cc1 [III-15c, (S)-N-(1-((4-Methoxyphenyl)(methyl)amino)-1-oxo-3-phenylpropan-2-yl)-3-(1-(4-nitrobenzyl)-1H-1,2,3-triazol-4-yl)benzamide]		> 33.9		
COc1ccc(N(C)C(=O)[C@H](Cc2cc(F)cc(F)c2)NC(=O)c2cn(-c3ccc4c(c3)OCO4)nn2)cc1 [I-8q, (S)-1-(Benzo[d][1,3]dioxol-5-yl)-N-(3-(3,5-difluorophenyl)-1-((4-methoxyphenyl)(methyl)amino)-1-oxopropan-2-yl)-1H-1,2,3-triazole-4-carboxamide]		9.15 ± 2.8	>2.04	
COc1ccc(N(C)C(=O)[C@H](Cc2ccccc2)NC(=O)c2cccc(-c3cn(Cc4ccc(C(N)=O)cc4)nn3)c2)cc1 [III-15d, (S)-3-(1-(4-Carbamoylbenzyl)-1H-1,2,3-triazol-4-yl)-N-(1-((4-methoxyphenyl)(methyl)amino)-1-oxo-3-phenylpropan-2-yl)benzamide]	exhibited anti-HIV-1 activity at the test concentration	26.2 ± 7.3		>1.30
COC(=O)CCCn1cc(-c2cccc(C(=O)N[C@@H](Cc3cc(F)cc(F)c3)C(=O)N(C)c3ccc(OC)cc3)c2)nn1 [II-10n, Methyl (S)-4-(4-(3-((3-(3,5-difluorophenyl)-1-((4-methoxyphenyl)(methyl)amino)-1-oxopropan-2-yl)carbamoyl)phenyl)-1H-1,2,3-triazol-1-yl)butanoate]	lost anti-HIV-1 activity completely	> 33.8		
COc1ccc(N(C)C(=O)[C@H](Cc2cc(F)cc(F)c2)NC(=O)c2cn(Cc3ccccc3C#N)nn2)cc1 [I-8g, (S)-1-(2-Cyanobenzyl)-N-(3-(3,5-difluorophenyl)-1-((4-methoxyphenyl)(methyl)amino)-1-oxopropan-2-yl)-1H-1,2,3-triazole-4-carboxamide]		9.61 ± 2.07	>1.96	
COc1ccc(N(C)C(=O)[C@H](Cc2ccccc2)NC(=O)c2cccc(-c3cn(Cc4cccc5ccccc45)nn3)c2)cc1 [III-15k, (S)-N-(1-((4-Methoxyphenyl)(methyl)amino)-1-oxo-3-phenylpropan-2-yl)-3-(1-(naphthalen-1-ylmethyl)-1H-1,2,3-triazol-4-yl)benzamide]		> 33.6		
COc1ccc(N(C)C(=O)[C@H](Cc2cc(F)cc(F)c2)NC(=O)c2cn(Cc3cccc([N+](=O)[O-])c3)nn2)cc1 [I-8k, (S)-N-(3-(3,5-Difluorophenyl)-1-((4-methoxyphenyl)(methyl)amino)-1-oxopropan-2-yl)-1-(3-nitrobenzyl)-1H-1,2,3-triazole-4-carboxamide]		10 ± 1.76		
COc1ccc(N(C)C(=O)[C@H](Cc2cc(F)cc(F)c2)NC(=O)c2cccc(-c3cn(Cc4cccc5ccccc45)nn3)c2)cc1 [II-10k, (S)-N-(3-(3,5-Difluorophenyl)-1-((4-methoxyphenyl)(methyl)amino)-1-oxopropan-2-yl)-3-(1-(naphthalen-1-ylmethyl)-1H-1,2,3-triazol-4-yl)benzamide]		> 31.7		
COc1ccc(N(C)C(=O)[C@H](Cc2cc(F)cc(F)c2)NC(=O)c2cccc(-c3cn(Cc4ccc(S(N)(=O)=O)cc4)nn3)c2)cc1 [II-10f, (S)-N-(3-(3,5-Difluorophenyl)-1-((4-methoxyphenyl)(methyl)amino)-1-oxopropan-2-yl)-3-(1-(4-sulfamoylbenzyl)-1H-1,2,3-triazol-4-yl)benzamide]		> 30.3		
COc1ccc(N(C)C(=O)[C@H](Cc2ccccc2)NC(=O)c2cccc(-c3cn(CC(=O)Nc4ccccc4)nn3)c2)cc1 [III-15e, (S)-N-(1-((4-Methoxyphenyl)(methyl)amino)-1-oxo-3-phenylpropan-2-yl)-3-(1-(2-oxo-2-(phenylamino)ethyl)-1H-1,2,3-triazol-4-yl)benzamide]		> 34		
COc1ccc(N(C)C(=O)[C@H](Cc2ccccc2)NC(=O)c2cccc(-c3cn(Cc4ccc(S(N)(=O)=O)cc4)nn3)c2)cc1 [III-15f, (S)-N-(1-((4-Methoxyphenyl)(methyl)amino)-1-oxo-3-phenylpropan-2-yl)-3-(1-(4-sulfamoylbenzyl)-1H-1,2,3-triazol-4-yl)benzamide]		> 32		
COC(=O)Cn1cc(-c2cccc(C(=O)N[C@@H](Cc3cc(F)cc(F)c3)C(=O)N(C)c3ccc(OC)cc3)c2)nn1 [II-10l, Methyl (S)-2-(4-(3-((3-(3,5-difluorophenyl)-1-((4-methoxyphenyl)(methyl)amino)-1-oxopropan-2-yl)carbamoyl)phenyl)-1H-1,2,3-triazol-1-yl)acetate]	lost anti-HIV-1 activity completely			
COc1ccc(N(C)C(=O)[C@H](Cc2cc(F)cc(F)c2)NC(=O)c2cn(Cc3ccc4ccccc4c3)nn2)cc1 [I-8n, (S)-N-(3-(3,5-Difluorophenyl)-1-((4-methoxyphenyl)(methyl)amino)-1-oxopropan-2-yl)-1-(naphthalen-2-ylmethyl)-1H-1,2,3-triazole-4-carboxamide]		14.6 ± 2.34	>1.23	
COc1ccc(N(C)C(=O)[C@H](Cc2cc(F)cc(F)c2)NC(=O)c2cn(Cc3ccc(Cl)cc3)nn2)cc1 [I-8f, (S)-1-(4-chlorobenzyl)-N-(3-(3,5-difluorophenyl)-1-((4-methoxyphenyl)(methyl)amino)-1-oxopropan-2-yl)-1H-1,2,3-triazole-4-carboxamide]		8.7 ± 1.65	>2.13	
COc1ccc(N(C)C(=O)[C@H](Cc2cc(F)cc(F)c2)NC(=O)c2cccc(-c3cn(Cc4ccc5ccccc5c4)nn3)c2)cc1 [II-10j, (S)-N-(3-(3,5-Difluorophenyl)-1-((4-methoxyphenyl)(methyl)amino)-1-oxopropan-2-yl)-3-(1-(naphthalen-2-ylmethyl)-1H-1,2,3-triazol-4-yl)benzamide]		> 31.7		
COc1ccc(N(C)C(=O)[C@H](Cc2cc(F)cc(F)c2)NC(=O)c2cn(Cc3ccc(S(N)(=O)=O)cc3)nn2)cc1 [I-8r, (S)-N-(3-(3,5-Difluorophenyl)-1-((4-methoxyphenyl)(methyl)amino)-1-oxopropan-2-yl)-1-(4-sulfamoylbenzyl)-1H-1,2,3-triazole-4-carboxamide]		12.3 ± 2.39	>1.39	
COc1ccc(N(C)C(=O)[C@H](Cc2ccccc2)NC(=O)c2cccc(-c3cn(CCCc4ccccc4)nn3)c2)cc1 [III-15g, (S)-N-(1-((4-Methoxyphenyl)(methyl)amino)-1-oxo-3-phenylpropan-2-yl)-3-(1-(3-phenylpropyl)-1H-1,2,3-triazol-4-yl)benzamide]		> 34.9		
COc1ccc(N(C)C(=O)[C@H](Cc2cc(F)cc(F)c2)NC(=O)c2cn(Cc3ccccc3[N+](=O)[O-])nn2)cc1 [I-8j, (S)-N-(3-(3,5-Difluorophenyl)-1-((4-methoxyphenyl)(methyl)amino)-1-oxopropan-2-yl)-1-(2-nitrobenzyl)-1H-1,2,3-triazole-4-carboxamide]		3.27 ± 0.78	>5.55	
